Here are results for three molecules from US20130203668A1, “PHARMACEUTICAL COMPOSITION COMPRISING ANTIPLATELET AGENTS AND AN ERYTHROPOIESIS STIMULATING AGENT” (CADILA HEALTHCARE LIMITED, priority 2010, published 2013).

For series [1], the system named is platelet rich plasma (PRP). As to the kind of experiment: Effect of clopidogrel and aspirin on rHuEPO-induced platelet reactivity, ex vivo platelet aggregation. Format: in vivo, male Wistar rats. As to conditions: for Effect on platelet aggregatory response in rHuEPO treated rats (in words): rHuEPO (25 μg/kg, S.C.) treated rats, clopidogrel 2.5 mg/kg p.o., aspirin 75 mg/kg p.o.; for % platelet aggregation: rHuEPO 25 μg/kg s.c., Clopidogrel 2.5 mg/kg p.o., Aspirin 75 mg/kg p.o. Here is the method:
(§1) Six to eight week old male Wistar rats used and the methods and procedures described here have been reviewed and approved by the Institutional Animal Ethics Committee (IAEC). Wistar male rats were divided in groups [each group containing 6 animals (n=6)]. Control animal received vehicle only (0.9% w/v NaCl normal saline), treatment groups received three consecutive doses of Recombinant Human Erythropoietin (25 and 50 μg/kg, s.c.) at an interval of 24 hour. Blood collection was performed at 48 hour after the last injection of Erythropoietin in citrated tubes. Platelet rich plasma (PRP) was separated. Determination of ex-vivo platelet aggregation was performed by using 1) ADP as aggregation inducing agent 2) Arachidonic acid as aggregation inducing agent 3) Thrombin as aggregation inducing agent and 4) Collagen as aggregation inducing agent. Platelet aggregation was performed by turbidometric method using high through put 96-well plate. Optical density was measured at 405 nm by Spectra Max plate reader. […] Increase in platelet aggregatory response meaning increase in platelet reactivity when same concentration of aggregating agent is used.
Six to eight week old male Wistar rats were divided in groups [each group containing 6 animals (n=6)]. Control animal received vehicle only (0.9% w/v NaCl normal saline), treatment groups received three consecutive doses of Recombinant Human Erythropoietin (25 μg/kg, s.c.) at an interval of 24 hour. Aspirin (75 mg/kg p.o.), and Clopidogrel (2.5 mg/kg, p.o.) were dosed individually and in combination with each other to respective groups at 48 hour after the last injection of erythropoietin. Blood collection was performed after 2 hours of antiplatelet treatment. Platelet rich plasma (PRP) was separated. Determination of ex-vivo platelet aggregation was performed by using 1) ADP as aggregation inducing agent 2) Arachidonic acid as aggregation inducing agent 3) Thrombin as aggregation inducing agent and 4) Collagen as aggregation inducing agent.

A short description of series [2]: Hematological parameters in 5/6 nephrectomized rats (chronic kidney disease model). Format: in vivo, male Wistar rats. As to conditions: i.v. 3 times a week for 4 weeks; for Hematocrit (%) Average / Hemoglobin (g/dL) Average / RBC count (10^6/μL) Average: 5/6 nephrectomized rats, EPO 500 IU/kg, Clopi 10 mg/kg. An excerpt:
(§2) Six to eight week old male Wistar rats used and the methods and procedures described here have been reviewed and approved by the Institutional Animal Ethics Committee (IAEC). We used human therapeutic dose of rHuEPO in rats and same frequency of administration as in humans (Kirkeby A et al., Thromb Haemost, 2008; 99:720-728). A 5/6 nephrectomy has been performed on male wistar rats (Toba H et al., European Journal of Pharmacology 656, 2011, 81-87) and treatment has been started after one month of nephrectomy.
(§3) The rats were divided into 5 groups (n=6): 1) a control group, which received a sham operation (SHAM control); 2) a 5/6 nephrectomized group (NPX), removed the upper and lower poles of the left kidney and after one week the entire right kidney under anesthesia (NPX vehicle); 3) a 5/6 nephrectomy+rHuEPO group, nephrectomized and injected with rHuEPO at 500 IU/kg 3 times a week intravenously (i.v.) for 4 weeks (NPX+EPO); 4) a 5/6 nephrectomized+rHuEPO+clopidogrel group, nephrectomized and administered with rHuEPO (500 IU/kg)+clopidogrel (10 mg/kg) every 3 times a week intravenously (i.v.) for 4 weeks. 5) a 5/6 nephrectomized+clopidogrel group, nephrectomized and administered with rHuEPO (500 IU/kg)+clopidogrel (10 mg/kg) every 3 times a week intravenously (i.v.) for 4 weeks.
(§4) After 4 weeks of treatment, blood samples were collected via retro-orbital route in tubes containing 3.8% tri-sodium citrate for the collection of platelet rich plasma (PRP) for ADP-induced platelet aggregation studies. Blood samples were also collected for hematological analysis in tubes containing 5% EDTA. Serum samples were used for measurement of various kidney biomarkers such as creatinine, urea, uric acid, blood urea nitrogen and total protein.

Series [3] has as its system platelet rich plasma (PRP). As to the kind of experiment: Ex vivo ADP-induced platelet aggregation in 5/6 nephrectomized rats (chronic kidney disease model). Set-up: species or system male Wistar rats. As to conditions: i.v. 3 times a week for 4 weeks; for Platelet aggregation (%) Average: 2.5 μM ADP, 5/6 nephrectomized rats, EPO 500 IU/kg, Clopi 10 mg/kg.
Excerpt: as §2, §3, §4
Increase in platelet aggregatory response meaning increase in platelet reactivity when same concentration of aggregating agent is used.

Series [4] relates to platelet rich plasma (PRP). As to the kind of experiment: Effect of rHuEPO on platelet reactivity, ex vivo platelet aggregation (ADP, arachidonic acid, thrombin, collagen). It is filed as in vivo, male Wistar rats. The note with it: for % platelet aggregation: s.c. treated rats. Here is the method:
as §1

Series [5] can be described thus: Bleeding time, tail transaction test. Format: in vivo, male Wistar rats. As to conditions: rHuEPO 25 μg/kg s.c., Clopidogrel 2.5 mpk, Aspirin 75 mpk; Wistar rats. As for the experimental part: Six to eight week old male Wistar rats were divided in groups [each group containing 6 animals (n=6)]. Control animal received vehicle only (0.9% w/v NaCl normal saline), treatment groups received three consecutive doses of Recombinant Human Erythropoietin (25 μg/kg, S.C.) at an interval of 24 hour. Aspirin (75 mg/kg p.o.), and Clopidogrel (2.5 mg/kg, p.o.) individually and in combination with each other were dosed to respective groups at 48 hour after the last injection of Erythropoietin. Bleeding time experiment using tail transaction test was performed.

Series [6] in a line: Kidney biomarkers in serum of 5/6 nephrectomized rats (chronic kidney disease model). It is filed as in vivo, male Wistar rats. The note with it: i.v. 3 times a week for 4 weeks.
Excerpt: as §2, §3, §4
There was increase in the serum creatinine, serum urea, serum uric acid, blood urea nitrogen and decrease in serum total protein in nephrectomized animals. […] There was improvement in the kidney function when combination of rHuEPO and antiplatelet agent has been given every 3 times a week intravenously (i.v.) for 4 weeks in nephrectomized rats (FIGS. 6a, 6b, 6c, 6d and 6e).

[7] abbreviates: 5/6 nephrectomized rats, EPO 500 IU/kg, Clopi 10 mg/kg.

Take `CC(=O)Oc1ccccc1C(=O)O` [Aspirin, reference compound]: in series [1], the “Effect on platelet aggregatory response in rHuEPO treated rats (in words)” value was “further normalizes the hyper reactive platelets”.

Turning to `COC(=O)[C@H](c1ccccc1Cl)N1CCc2sccc2C1` [Clopidogrel, reference compound], in series [2], the “Hematocrit (%) Average” value was determined as 46.07%, the “Hemoglobin (g/dL) Average” value is reported as 14.77 g/dL and the “RBC count (10^6/μL) Average” value was 8.52 10^6/μL. The “Platelet aggregation (%) Average” value in series [3] is on record as −2%. Also, the “Effect on platelet aggregatory response in rHuEPO treated rats (in words)” value in series [1] is given as “platelet aggregatory response is normalized”.

“Recombinant Human Erythropoietin [rHuEPO]”: the “% platelet aggregation” value amounted to 59.1 ± 3.2% in series [4] (ADP (1.25 μM), rHuEPO 25 μg/kg, 3 doses, blood 48 h after last dose); 66.4 ± 4.5% in series [4] (ADP (1.25 μM), rHuEPO 50 μg/kg, 3 doses, blood 48 h after last dose); 50.6 ± 3.1% in series [4] (Arachidonic acid (150 μM), rHuEPO 25 μg/kg); 61.3 ± 3.4% in series [4] (Arachidonic acid (150 μM), rHuEPO 50 μg/kg); 30.5 ± 2.0% in series [4] (Collagen (0.25 μg/ml), rHuEPO 25 μg/kg); 45.9 ± 3.2% in series [4] (Collagen (0.25 μg/ml), rHuEPO 50 μg/kg). The “% platelet aggregation” value in series [4] (Collagen (0.5 μg/ml), rHuEPO 25 μg/kg) is recorded as 56.9 ± 1.7%; in series [4] (Collagen (0.5 μg/ml), rHuEPO 50 μg/kg), 65.9 ± 1.7%; in series [4] (Thrombin (0.0125 IU/ml), rHuEPO 25 μg/kg), 37.7 ± 3.0%; in series [4] (Thrombin (0.0125 IU/ml), rHuEPO 50 μg/kg), 59.5 ± 4.4%; in series [1] (ADP (1.25 μM), blood 2 h after antiplatelet treatment), 59.5 ± 1.4%; in series [1] (Arachidonic acid (150 μM)), 44.4 ± 2.5%. In addition, the “% platelet aggregation” value came to 60.03 ± 1.9% in series [1] (Collagen (0.25 μg/ml)) and 70.8 ± 1.0% in series [1] (Thrombin (0.025 IU/ml)). Further, the “Effect on platelet aggregation (in words)” value in series [4] (rHuEPO 25 and 50 μg/kg, s.c., constant concentration of aggregating agents) was “causes increase in platelet aggregation”. Further, in series [5], the “Bleeding Time” value stood at 165 ± 28.1 s. The “Hematocrit (%) Average” value in series [2] turned out to be 62.3%. Besides, the “Hemoglobin (g/dL) Average” value in series [2] amounted to 20.4 g/dL. In addition, in series [2], the “RBC count (10^6/μL) Average” value is on record as 11.13 10^6/μL. Also, the “Effect on hematological parameters (in words)” value in series [2] (nephrectomized rats) is “increase in RBC count, hemoglobin and hematocrit”. Also, the “Blood urea nitrogen mg/dL Average” value in series [6] (setting [7]) came out at 64.33 mg/dL. Moreover, the “Serum creatinine mg/dL Average” value in series [6] (setting [7]) amounted to 0.74 mg/dL. The “Serum urea mg/dL Average” value in series [6] (setting [7]) came out at 134.33 mg/dL. Also, the “Serum uric acid mg/dL Average” value in series [6] (setting [7]) was 1.4 mg/dL. The “Total protein g/dL Average” value in series [6] (setting [7]) came out at 6.13 g/dL. For the same molecule, the “Effect on kidney function / kidney biomarkers (in words)” value in series [6] (nephrectomized rats) is “further increase in the serum creatinine, serum urea, serum uric acid, blood urea nitrogen”. The “Platelet aggregation (%) Average” value in series [3] came to 55%. Moreover, the “Effect on platelet aggregatory response in nephrectomized rats (in words)” value in series [3] (ADP, rHuEPO 500 IU/kg, clopidogrel 10 mg/kg) is recorded as “platelet aggregation increases”.
